One assay deals with KRAS G12V (Homo sapiens (Human), UniProt P01116, G12V). Nature of the assay: KRAS G12V degradation in SW620 cells (Western blot, DC50). The assay is classed as cell-based. Particulars: 24 hours. As for the experimental part: SW620 (KRAS G12V homozygous), AsPC1 (KRAS G12D homozygous), MIA PaCa2 (KRAS G12C homozygous), A549 (KRAS G12S homozygous) and MCF7 (KRAS WT) cells were obtained from American Type Culture Collection (ATCC). […] The following day, the test compound was administered to the cells by using 1000× compound stock solution prepared in DMSO at various concentrations. After administration of the compound, the cells were then incubated at 37° C. for 24 hours. Upon completion, the cells were washed with PBS and protein was collected in Laemmli sample buffer (1×; VWR International). Proteins in cell lysate were separated by SDS-PAGE and transferred to Odyssey nitrocellulose membranes (Licor) with iblot® dry blotting transfer system (ThermoFisher). Nonspecific binding was blocked by incubating membranes with Intercept Blocking Buffer (Licor) for 1 hour at room temperature with gentle shaking. […] After washing 3 times with TBS-T, the membranes were incubated with IRDye® 800CW goat anti-rabbit IgG (1:20,000, Licor) and IRDye® 680RD goat anti-mouse IgG (1:20,000, Licor) for 1 hour. After TBS-T washes, membranes were rinsed in TBS and Western blot images were acquired by Odyssey CLx (LI-COR Biosciences).
The signal intensity of target proteins was calculated using ImageStudio software. KRAS fluorescent intensity (FLU) from DMSO (vehicle) treatment was set as 100%. Relative KRAS expression level was determined by the following formula: […]
The percentage of KRAS expression was calculated using Microsoft Excel. The half-maximal degradation concentration (DCso) values were generated by GraphPad Prism (Version 9) using the dose-response equation of variable slope (four parameters).
In general terms: A western blot detects proteins with antibodies after separation by electrophoresis.

The subject of the next assay is SW620 cells. Kind of assay: 3D cell growth inhibition of SW620 cells carrying endogenous KRAS G12V mutation (CellTiter-Glo 3D, GI50). Particulars: Homo sapiens, SW-620, 144 h; SW620 cells, 6 days; read-out: SW620 3D cell growth GI50. The assay is classed as cell-based. As for the experimental part:
The following day, the test compound was administered to the cells by using 1000× compound stock solution prepared in DMSO at various concentrations. 1000× compound stock solution was first diluted in culturing medium to 10×, then 10 μL compound medium was added to each well in the cell plates. After administration of the compound, the cells were then incubated at 37° C. for 6 days. Upon completion, the plates were equilibrated at room temperature for approximately 10 minutes. 100 μL of CellTiter-Glo® 3D Reagent (Promega) was added to each well. The plates were then incubated at room temperature for 30 minutes and luminescence was recorded by EnSpire plate reader (PerkinElmer).
(In general: Cellular ATP, detected with luciferase, serves as a proxy for viable cell number.)

For another assay, the target named is KRAS-G12V/RAF1 (Homo sapiens (Human), UniProt P01116, G12V). Kind of assay: KRAS/RAF1 binding inhibition assay (AlphaScreen). As to the method:
Binding affinity against GTP-bound KRAS of the compounds disclosed herein was measured by monitoring the interaction of guanosine 5′-[β,γ-imido]triphosphate-bound (GppNHp-bound) KRAS with the RBD domain of RAF1 in the presence of the test compound. […] The test compounds in 2% DMSO (final concentration) at various concentrations were then added to the reaction mixture and incubated for 60 minutes at 4° C.
Raw ALphaScreen data were converted to a percentage of inhibition (relative to DMSO) using the following equations: • a) For a given test compound concentration X: […]
The IC50 values were determined by nonlinear regression of plots of [inhibitor] vs. percentage of inhibition with variable slope, analyzed using GraphPad Prism (Version 9).

As usually defined, the DC50 is the midpoint of the concentration-degradation curve. Read a high DC50 as a less potent degrader. Broadly, the GI50 is the concentration at which growth is held to half of that of the control. By IC50 is commonly meant the midpoint of a concentration-inhibition curve.

Chain of KRAS G12V (P01116-2 other isoform, or with tags, fused parts or gaps G12V): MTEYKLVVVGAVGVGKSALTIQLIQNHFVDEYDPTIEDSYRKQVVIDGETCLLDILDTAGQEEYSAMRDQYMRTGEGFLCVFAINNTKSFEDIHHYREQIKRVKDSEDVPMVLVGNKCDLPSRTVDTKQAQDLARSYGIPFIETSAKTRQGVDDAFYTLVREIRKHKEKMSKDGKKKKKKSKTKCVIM
Chain of KRAS-G12V/RAF1 (P01116-2 other isoform, or with tags, fused parts or gaps G12V): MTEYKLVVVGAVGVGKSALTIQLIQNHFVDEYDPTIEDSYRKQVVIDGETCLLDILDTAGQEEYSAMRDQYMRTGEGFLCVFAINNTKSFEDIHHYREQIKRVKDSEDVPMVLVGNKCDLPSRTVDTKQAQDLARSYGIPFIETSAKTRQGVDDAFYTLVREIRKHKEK

At KRAS G12V, `Cc1cc(N)nc(-c2c(Cl)c3c4c(nc(OCC5(CN6CCC7(CC6)CC(CN6CCN(c8ccc9c(c8)CN([C@H]8CCC(=O)NC8=O)C9=O)CC6)C7)CC5)nc4c2F)N(C(C)c2cccnc2N)CCO3)c1C(F)(F)F` (stereo partly drawn) [Compound 5, (3S)-3-(5-(4-((7-((1-(((9-(6-amino-4-methyl-3-(trifluoromethyl)pyridin-2-yl)-4-(1-(2-aminopyridin-3-yl)ethyl)-8-chloro-10-fluoro-5,6-dihydro-4H-[1,4]oxazepino[5,6,7-de]quinazolin-2-yl)oxy)methyl)cyclopropyl)methyl)-7-azaspiro[3.5]nonan-2-yl)methyl)piperazin-1-yl)-1-oxoisoindolin-2-yl)piperidine-2,6-dione] yielded a half-maximal degradation concentration (DC50) of over 100 nM. For the same compound, the 50% growth inhibitory concentration (GI50) in the assay on SW620 cells was over 100 nM.

As to `CCc1c(F)ccc2cc(O)cc(-c3ncc4c(N5CCC[C@@](C)(OC)C5)nc(OCC5(CN6CCC7(CC6)CC(CN6CCN(c8ccc9c(c8)CN([C@H]8CCC(=O)NC8=O)C9=O)CC6)C7)CC5)nc4c3F)c12` [Compound 36, (S)-3-(5-(4-((7-((1-(((7-(8-ethyl-7-fluoro-3-hydroxynaphthalen-1-yl)-8-fluoro-4-((R)-3-methoxy-3-methylpiperidin-1-yl)pyrido[4,3-d]pyrimidin-2-yl)oxy)methyl)cyclopropyl)methyl)-7-azaspiro[3.5]nonan-2-yl)methyl)piperazin-1-yl)-1-oxoisoindolin-2-yl)piperidine-2,6-dione], at KRAS G12V, the DC50 was over 100 nM. The GI50 in the assay on SW620 cells was over 100 nM.

The compound `CCc1c(F)ccc2cc(O)cc(-c3ncc4c(N5CCCC6(CCO6)C5)nc(OCC5(CN6CCC(CN7CC(N8CCN(c9ccc%10c(c9)CN([C@H]9CCC(=O)NC9=O)C%10=O)CC8)C7)CC6)CC5)nc4c3F)c12` (stereo partly drawn) [Compound 37, (3S)-3-(5-(4-(1-((1-((1-(((7-(8-ethyl-7-fluoro-3-hydroxynaphthalen-1-yl)-8-fluoro-4-(1-oxa-6-azaspiro[3.5]nonan-6-yl)pyrido[4,3-d]pyrimidin-2-yl)oxy)methyl)cyclopropyl)methyl)piperidin-4-yl)methyl)azetidin-3-yl)piperazin-1-yl)-1-oxoisoindolin-2-yl)piperidine-2,6-dione] displayed a DC50 on KRAS G12V of 1 to 10 nM. Also, the 50% growth inhibitory concentration (GI50) in the assay on SW620 cells was under 10 nM.

In turn, `CCc1c(F)ccc2cc(O)cc(-c3ncc4c(N5CCC[C@@](C)(O)C5)nc(OCC5(CN6CC(N7CC8(CN(c9ccc%10c(c9)CN(C9CCC(=O)NC9=O)C%10=O)C8)C7)C6)CC5)nc4c3F)c12` (stereo partly drawn) [Compound 158, 3-(5-(6-(1-((1-(((7-(8-ethyl-7-fluoro-3-hydroxynaphthalen-1-yl)-8-fluoro-4-((R)-3-hydroxy-3-methylpiperidin-1-yl)pyrido[4,3-d]pyrimidin-2-yl)oxy)methyl)cyclopropyl)methyl)azetidin-3-yl)-2,6-diazaspiro[3.3]heptan-2-yl)-1-oxoisoindolin-2-yl)piperidine-2,6-dione] had a half-maximal degradation concentration (DC50) on KRAS G12V of 1 to 10 nM. In the assay with SW620 cells, the 50% growth inhibitory concentration (GI50) was under 10 nM.

`C[C@@]1(O)CCCN(c2nc(OCC3(CN4CCC(CN5CCN(c6ccc7c(c6)CN([C@H]6CCC(=O)NC6=O)C7=O)CC5)CC4)CC3)nc3c(F)c(-c4cc(O)cc5ccc(F)c(Cl)c45)ncc23)C1` [Compound 156, (S)-3-(5-(4-((1-((1-(((7-(8-chloro-7-fluoro-3-hydroxynaphthalen-1-yl)-8-fluoro-4-((R)-3-hydroxy-3-methylpiperidin-1-yl)pyrido[4,3-d]pyrimidin-2-yl)oxy)methyl)cyclopropyl)methyl)piperidin-4-yl)methyl)piperazin-1-yl)-1-oxoisoindolin-2-yl)piperidine-2,6-dione]: the 50% degradation concentration (DC50) at KRAS G12V is under 1 nM. In addition, in the assay with SW620 cells, the GI50 is under 10 nM.

For the compound `CCc1c(F)ccc2cc(O)cc(-c3ncc4c(N5CCCNC(=O)C5)nc(OCC5(CN6CCC7(CC6)CC(CN6CCN(c8ccc9c(c8)CN([C@H]8CCC(=O)NC8=O)C9=O)CC6)C7)CC5)nc4c3F)c12` [Compound 93, (S)-3-(5-(4-((7-((1-(((7-(8-ethyl-7-fluoro-3-hydroxynaphthalen-1-yl)-8-fluoro-4-(3-oxo-1,4-diazepan-1-yl)pyrido[4,3-d]pyrimidin-2-yl)oxy)methyl)cyclopropyl)methyl)-7-azaspiro[3.5]nonan-2-yl)methyl)piperazin-1-yl)-1-oxoisoindolin-2-yl)piperidine-2,6-dione], the half-maximal degradation concentration (DC50) at KRAS G12V was over 100 nM. Also, in the assay with SW620 cells, the concentration for 50% growth inhibition (GI50) is over 100 nM.

For the compound `CCc1c(F)ccc2cc(O)cc(-c3ncc4c(N5CCC[C@@](C)(O)C5)nc(OCC5(CN6CCC(N7CC(CN8CCN(c9ccc(C%10CCC(=O)NC%10=O)cc9)CC8)C7)CC6)CC5)nc4c3F)c12` (stereo partly drawn) [Compound 21, 3-(4-(4-((1-(1-((1-(((7-(8-ethyl-7-fluoro-3-hydroxynaphthalen-1-yl)-8-fluoro-4-((R)-3-hydroxy-3-methylpiperidin-1-yl)pyrido[4,3-d]pyrimidin-2-yl)oxy)methyl)cyclopropyl)methyl)piperidin-4-yl)azetidin-3-yl)methyl)piperazin-1-yl)phenyl)piperidine-2,6-dione], at KRAS G12V, the DC50 was over 100 nM. In addition, the 50% growth inhibitory concentration (GI50) in the assay on SW620 cells is over 100 nM.

The compound `C[C@@]1(O)CCCN(c2nc(OCC3(CN4CCC5(CC4)CC(CN4CCN(c6ccc7c(c6)CN([C@H]6CCC(=O)NC6=O)C7=O)CC4)C5)CC3)nc3c(F)c(-c4cc(O)cc5ccc(F)c(Cl)c45)ncc23)C1` [Compound 157, (S)-3-(5-(4-((7-((1-(((7-(8-chloro-7-fluoro-3-hydroxynaphthalen-1-yl)-8-fluoro-4-((R)-3-hydroxy-3-methylpiperidin-1-yl)pyrido[4,3-d]pyrimidin-2-yl)oxy)methyl)cyclopropyl)methyl)-7-azaspiro[3.5]nonan-2-yl)methyl)piperazin-1-yl)-1-oxoisoindolin-2-yl)piperidine-2,6-dione] registered a DC50 at KRAS G12V of under 1 nM. The GI50 with SW620 cells was under 10 nM.

On KRAS-G12V/RAF1, `CCc1c(F)ccc2cc(O)cc(-c3ncc4c(N5CCCC6(CC(O)C6)C5)nc(OCC5(CN6CCC7(CC6)CC(CN6CCN(c8ccc9c(c8)CN([C@H]8CCC(=O)NC8=O)C9=O)CC6)C7)CC5)nc4c3F)c12` [Compound 97, (S)-3-(5-(4-((7-((1-(((7-(8-ethyl-7-fluoro-3-hydroxynaphthalen-1-yl)-8-fluoro-4-(2-hydroxy-6-azaspiro[3.5]nonan-6-yl)pyrido[4,3-d]pyrimidin-2-yl)oxy)methyl)cyclopropyl)methyl)-7-azaspiro[3.5]nonan-2-yl)methyl)piperazin-1-yl)-1-oxoisoindolin-2-yl)piperidine-2,6-dione] displayed an IC50 of over 200 nM. At KRAS G12V, this compound had a 50% degradation concentration (DC50) of over 100 nM.

For `CCc1c(F)ccc2cc(O)cc(-c3ncc4c(N5CCOC[C@](C)(O)C5)nc(OCC5(CN6CCC7(CC6)CC(CN6CCN(c8ccc9c(c8)CN([C@H]8CCC(=O)NC8=O)C9=O)CC6)C7)CC5)nc4c3F)c12` [Compound 113, (S)-3-(5-(4-((7-((1-(((7-(8-ethyl-7-fluoro-3-hydroxynaphthalen-1-yl)-8-fluoro-4-((R)-6-hydroxy-6-methyl-1,4-oxazepan-4-yl)pyrido[4,3-d]pyrimidin-2-yl)oxy)methyl)cyclopropyl)methyl)-7-azaspiro[3.5]nonan-2-yl)methyl)piperazin-1-yl)-1-oxoisoindolin-2-yl)piperidine-2,6-dione], at KRAS-G12V/RAF1, the half-maximal inhibitory concentration (IC50) was over 200 nM. This compound also gave a half-maximal degradation concentration (DC50) on KRAS G12V of over 100 nM.

At KRAS-G12V/RAF1, `CCc1cccc2cc(O)cc(-c3ncc4c(N5CCOC[C@](C)(O)C5)nc(OCC5(CN6CCC7(CC6)CC(CN6CCN(c8ccc9c(c8)CN([C@H]8CCC(=O)NC8=O)C9=O)CC6)C7)CC5)nc4c3F)c12` [Compound 107, (S)-3-(5-(4-((7-((1-(((7-(8-ethyl-3-hydroxynaphthalen-1-yl)-8-fluoro-4-((R)-6-hydroxy-6-methyl-1,4-oxazepan-4-yl)pyrido[4,3-d]pyrimidin-2-yl)oxy)methyl)cyclopropyl)methyl)-7-azaspiro[3.5]nonan-2-yl)methyl)piperazin-1-yl)-1-oxoisoindolin-2-yl)piperidine-2.6-dione] showed a half-inhibitory concentration (IC50) of over 200 nM. This compound also displayed a 50% degradation concentration (DC50) on KRAS G12V of over 100 nM.
